In the supplement of paper PMC10307832:

Key:
Assay in all cases: relative viability (nuclei count vs DMSO), 5 days (fraction); higher = more cells survive
[1] = compound: CC(C)(C)c1cc(NC(=O)Nc2ccc(-c3cn4c(n3)sc3cc(OCCN5CCOCC5)ccc34)cc2)no1 [Quizartinib] + COc1cc2c(Oc3ccc(NC(=O)C4(C(=O)Nc5ccc(F)cc5)CC4)cc3F)ccnc2cc1OCCCN1CCOCC1 [Foretinib] (partner 0.25 µM)
Procedure, shortened: (§1)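 Lung cancer cell lines were pin-tool dosed in 1536-well plates on the day after seeding, with either a lone drug or a fixed anchor-drug dose plus five library-drug doses (not always all listed) in √10 steps. Nuclei were counted on 4× images after 5 days. Relative viability is the ratio of treated-well to vehicle-well nuclei counts, with each value a median of duplicate plates.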

[2] = compound: COCC[n+]1c2c(n(Cc3cnccn3)c1C)C(=O)c1ccccc1C2=O [YM155] + CS(=O)(=O)CCNCc1ccc(-c2ccc3ncnc(Nc4ccc(OCc5cccc(F)c5)c(Cl)c4)c3c2)o1 [Lapatinib] (partner 2 µM)
Procedure, shortened: as §1

[3] = compound: COCC[n+]1c2c(n(Cc3cnccn3)c1C)C(=O)c1ccccc1C2=O [YM155] + COc1cccc2cc(-c3nc([C@H]4CC[C@H](C(=O)O)CC4)n4ncnc(N)c34)[nH]c12 [OSI-027] (partner 0.5 µM)
Procedure, shortened: as §1

[4] = compound: COCC[n+]1c2c(n(Cc3cnccn3)c1C)C(=O)c1ccccc1C2=O [YM155] + Nc1nc2[nH]cc(CCc3ccc(C(=O)N[C@@H](CCC(=O)O)C(=O)O)cc3)c2c(=O)[nH]1 [Pemetrexed] (partner 0.2 µM)
Procedure, shortened: as §1

Cell Line | relative viability ([1]; first compound 0.001 µM) | relative viability ([1]; first compound 0.003162 µM) | relative viability ([1]; first compound 0.01 µM) | relative viability ([1]; first compound 0.03162 µM) | relative viability ([1]; first compound 0.1 µM) | relative viability ([2]; first compound 0.002 µM) | relative viability ([2]; first compound 0.006325 µM) | relative viability ([2]; first compound 0.02 µM) | relative viability ([2]; first compound 0.06325 µM) | relative viability ([3]; first compound 0.002 µM) | relative viability ([3]; first compound 0.006325 µM) | relative viability ([3]; first compound 0.02 µM) | relative viability ([3]; first compound 0.06325 µM) | relative viability ([4]; first compound 0.002 µM) | relative viability ([4]; first compound 0.006325 µM) | relative viability ([4]; first compound 0.02 µM) | relative viability ([4]; first compound 0.06325 µM)
NCI-H1944 | 0.854 | 0.825 | 0.938 | 0.888 | 0.795 | 0.842 | 0.724 | 0.767 | 0.82 | 0.364 | 0.381 | 0.445 | 0.485 | 0.74 | 0.559 | 0.587 | 0.641
NCI-H460 | 0.916 | 0.961 | 1.03 | 0.652 | 0.976 | 0.906 | 1.1 | 1.05 | 0.452 | 0.584 | 0.769 | 0.757 | 0.694 | 0.072 | 0.0667 | 0.0671 | 0.0598
NCI-H1993 | 0.806 | 0.809 | 0.793 | 0.81 | 0.792 | 0.81 | 0.736 | 0.682 | 0.757 | 0.563 | 0.569 | 0.583 | 0.522 | 0.566 | 0.542 | 0.567 | 0.444
LOU-NH91 | 0.967 | 0.903 | 0.906 | 0.902 | 1.02 | 0.828 | 0.778 | 0.778 | 0.788 | 0.689 | 0.751 | 0.757 | 0.762 | 0.361 | 0.356 | 0.346 | 0.343
201T | 1.07 | 0.998 | 1.09 | 0.942 | 1.01 | 1.02 | 0.992 | 0.956 | 0.96 | 0.629 | 0.696 | 0.751 | 0.754 | 0.31 | 0.406 | 0.298 | 0.28
EKVX | 0.201 | 0.739 | 0.749 | 0.852 | 0.833 | 0.214 | 0.286 | 0.221 | 0.182 | 0.683 | 0.759 | 0.683 | 0.687 | 0.431 | 0.437 | 0.399 | 0.234
NCI-H1651 | 0.766 | 0.747 | 0.872 | 0.606 | 0.769 | 0.869 | 0.861 | 0.726 | 0.601 | 0.685 | 0.774 | 0.88 | 0.585 | 0.598 | 0.599 | 0.6 | 0.615
LU99A | 0.715 | 0.871 | 0.838 | 0.808 | 0.603 | 0.965 | 0.884 | 0.809 | 0.589 | 0.285 | 0.274 | 0.322 | 0.28 | 0.164 | 0.2 | 0.153 | 0.177
LC-2-ad | 0.883 | 0.857 | 0.977 |  | 0.904 | 0.997 | 0.92 | 0.946 | 0.907 | 0.804 | 0.917 | 0.773 | 0.621 | 0.287 | 0.248 | 0.28 | 0.262
A-427 |  | 0.988 | 0.97 | 1.04 | 0.957 | 1 | 0.994 | 1.07 | 0.987 | 0.478 | 0.562 | 0.597 | 0.458 | 0.941 | 1.02 | 1 | 0.762
NCI-H2009 | 1.24 | 1.17 | 1.29 | 1.17 | 1.21 | 0.888 | 0.893 | 0.946 | 0.119 | 0.567 | 0.604 | 0.647 | 0.382 | 0.93 | 1.07 | 0.85 | 0.528
LCLC-97TM1 | 0.889 | 0.802 | 0.906 | 0.953 | 0.971 | 1.04 | 1.03 | 1 | 0.551 | 0.442 | 0.539 | 0.548 | 0.469 |  | 0.193 | 0.181 | 0.18
BEN | 0.672 | 0.772 | 0.648 | 0.424 | 0.672 | 0.59 | 0.746 | 0.782 | 0.86 | 0.268 | 0.311 | 0.304 | 0.29 | 0.63 | 0.839 | 0.934 | 0.908
NCI-H1650 | 0.549 | 1.11 | 1.35 |  | 1.03 | 0.674 | 0.787 | 0.988 | 0.488 | 0.677 | 0.783 | 0.594 | 0.613 | 0.35 | 0.348 | 0.321 | 0.249
EMC-BAC-2 | 0.938 | 1.02 | 1.14 |  | 1.01 | 0.795 | 0.899 | 0.874 | 0.817 | 0.388 | 0.364 | 0.374 | 0.382 | 0.456 | 0.486 | 0.463 | 0.424
NCI-H520 | 0.81 | 0.636 | 0.894 | 0.722 | 0.541 | 0.801 | 0.733 | 1.16 | 1.02 | 0.244 | 0.242 | 0.29 | 0.326 | 0.534 | 0.74 | 0.685 | 0.694

Cell Line | relative viability ([1]; first compound 0.001 µM) | relative viability ([1]; first compound 0.003162 µM) | relative viability ([1]; first compound 0.01 µM) | relative viability ([1]; first compound 0.03162 µM) | relative viability ([1]; first compound 0.1 µM) | relative viability ([2]; first compound 0.002 µM) | relative viability ([2]; first compound 0.006325 µM) | relative viability ([2]; first compound 0.02 µM) | relative viability ([2]; first compound 0.06325 µM) | relative viability ([3]; first compound 0.002 µM) | relative viability ([3]; first compound 0.006325 µM) | relative viability ([3]; first compound 0.02 µM) | relative viability ([3]; first compound 0.06325 µM) | relative viability ([4]; first compound 0.002 µM) | relative viability ([4]; first compound 0.006325 µM) | relative viability ([4]; first compound 0.02 µM) | relative viability ([4]; first compound 0.06325 µM)
NCI-H1355 | 0.917 | 0.957 | 0.936 | 0.814 | 1.06 | 0.934 | 1.04 | 0.996 | 1.02 | 0.386 | 0.394 | 0.454 | 0.47 | 0.979 | 1.07 | 1.04 | 0.997
HCC-366 | 0.884 | 0.921 | 0.992 | 0.914 | 0.946 | 1.07 | 0.986 | 1.01 | 0.625 | 1.08 | 0.767 | 1.01 | 0.945 | 0.161 | 0.187 | 0.158 | 0.165
NCI-H1563 | 0.975 | 0.898 | 0.884 | 0.631 | 0.881 | 0.924 | 0.994 | 0.986 | 1.05 | 0.752 | 0.754 | 0.652 | 0.741 | 0.753 | 0.726 | 0.86 | 0.745
NCI-H1915 | 1.06 | 0.992 | 1.13 | 1.03 | 1.07 | 0.968 | 0.946 | 0.918 | 0.784 | 0.585 | 0.593 | 0.613 | 0.574 | 0.481 | 0.494 | 0.439 | 0.458
HARA |  | 0.832 | 0.952 | 0.942 | 0.913 | 0.623 | 0.862 | 0.701 | 0.959 | 0.495 | 0.51 | 0.792 | 0.505 |  | 0.235 | 0.228 | 0.268
NCI-H358 | 0.613 | 0.796 | 0.634 | 0.438 | 0.642 | 0.326 | 0.447 | 0.344 | 0.199 | 0.684 | 0.981 | 0.887 | 0.552 | 0.181 | 0.172 | 0.167 | 0.127
PC-3 [JPC-3] | 0.947 | 1.03 | 1.11 | 1.04 | 1.07 | 0.455 | 0.455 | 0.437 | 0.455 | 0.784 | 0.783 | 0.808 | 0.809 | 0.978 | 1.22 | 1.07 | 0.967
LXF-289 | 0.913 | 1 | 1.13 | 0.948 | 0.888 | 0.891 | 0.892 | 0.905 | 0.713 | 0.723 | 0.856 | 0.767 | 0.785 | 0.855 | 0.914 | 0.827 | 0.783
NCI-H2170 | 0.932 | 0.956 | 1.08 | 0.981 | 1.12 | 0.261 | 0.261 | 0.291 | 0.235 | 0.698 | 0.785 | 0.695 | 0.74 | 0.253 | 0.256 | 0.271 | 0.264
NCI-H2126 | 1 | 1.12 | 1.2 | 1.22 | 1.23 | 0.768 | 0.788 | 0.726 | 0.783 | 0.645 | 0.714 | 0.761 | 0.727 | 0.696 | 0.691 | 0.67 | 0.753
NCI-H1755 | 0.826 | 0.881 | 0.93 | 0.956 | 0.822 | 1.04 | 1.03 | 1.01 | 1.04 | 0.716 | 0.753 | 0.747 | 0.705 | 0.647 | 0.42 | 0.359 | 0.434
HCC-827 | 1.02 | 0.922 | 1.07 | 1.06 | 1.07 | 0.169 | 0.198 | 0.177 | 0.191 | 0.678 | 0.805 | 0.76 | 0.842 | 0.301 | 0.328 | 0.253 | 0.303
NCI-H838 | 0.991 | 1.01 | 0.99 | 0.938 | 0.684 | 0.92 | 1.01 | 1.03 | 0.353 | 0.361 | 0.406 | 0.421 | 0.438 | 0.276 | 0.232 | 0.225 | 0.216
NCI-H3122 | 0.919 | 0.918 | 0.988 | 0.953 | 0.965 | 1 | 0.997 | 1.01 | 1.08 | 0.995 | 1 | 1.05 | 0.715 | 0.185 | 0.214 | 0.189 | 0.186
HCC-78 | 0.53 | 0.57 | 0.573 | 0.513 | 0.558 | 0.672 | 0.806 | 0.968 | 0.833 | 0.361 | 0.379 | 0.385 | 0.383 | 0.896 | 0.954 | 0.935 | 0.913
